By IC50 is commonly meant the concentration that gives 50% inhibition. In general, Ki refers to the equilibrium dissociation constant of an inhibitor or competing ligand from its target.

Series [1] in a line: DRUGMATRIX: Sigma2 radioligand binding (ligand: [3H] Ifenprodil). It is filed as cell membranes, Rattus norvegicus, Wistar, Brain, Membrane. To be noted: Not Active = under 50% inhibition at 10 µM.
The target of the next series is Substance-P receptor (Homo sapiens, UniProt P25103). It is filed as cell membranes, CHO, Membrane. To be noted: cho. Note: in other assays of this panel Not Active means under 50% inhibition at 10 µM.
In series [2] the target is Vascular endothelial growth factor receptor 1 (Homo sapiens, UniProt P17948). It is filed as cell-based. To be noted: huvec. Note: in other assays of this panel Not Active means under 50% inhibition at 10 µM.
Another series addresses T1, Endothelin-1 receptor (Homo sapiens, UniProt P25101).
T1 sequence (P25101 whole entry): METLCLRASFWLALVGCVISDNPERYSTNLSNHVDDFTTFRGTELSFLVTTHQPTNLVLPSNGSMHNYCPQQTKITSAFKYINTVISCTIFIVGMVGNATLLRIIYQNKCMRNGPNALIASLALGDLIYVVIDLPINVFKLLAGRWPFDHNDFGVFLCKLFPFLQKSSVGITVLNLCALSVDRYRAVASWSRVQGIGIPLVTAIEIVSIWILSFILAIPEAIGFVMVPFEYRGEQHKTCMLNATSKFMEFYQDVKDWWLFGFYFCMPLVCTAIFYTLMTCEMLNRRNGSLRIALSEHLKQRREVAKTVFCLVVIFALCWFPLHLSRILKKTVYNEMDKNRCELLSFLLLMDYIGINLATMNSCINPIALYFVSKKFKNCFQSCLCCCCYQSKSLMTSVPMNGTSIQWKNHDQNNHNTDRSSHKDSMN
In kind it is cell membranes, CHO-K1, Membrane. To be noted: cho-k1.

Series [3] in a line: DRUGMATRIX: Phosphodiesterase PDE3 enzyme inhibition (substrate: [3H]cAMP + cAMP). It is filed as tissue-based, Homo sapiens. To be noted: platelet; Not Active = under 50% inhibition at 10 µM.
Series [4] deals with Mitogen-activated protein kinase 14 (Homo sapiens, UniProt Q16539). The arrangement: species or system Escherichia coli.
Another series has as its target Acetylcholinesterase (Homo sapiens, UniProt P22303). The experiment in a line: DRUGMATRIX: Acetylcholinesterase enzyme inhibition (substrate: acetylthiocholine). It is filed as cell-based, HEK293. To be noted: Not Active = under 50% inhibition at 10 µM.
For another series, the target named is Cytochrome P450 2C9 (Homo sapiens, UniProt P11712). To be noted: bti-tn-5b1-4. Note: in other assays of this panel Not Active means under 50% inhibition at 10 µM.
Cytochrome P450 2C9, sequence (P11712 whole entry): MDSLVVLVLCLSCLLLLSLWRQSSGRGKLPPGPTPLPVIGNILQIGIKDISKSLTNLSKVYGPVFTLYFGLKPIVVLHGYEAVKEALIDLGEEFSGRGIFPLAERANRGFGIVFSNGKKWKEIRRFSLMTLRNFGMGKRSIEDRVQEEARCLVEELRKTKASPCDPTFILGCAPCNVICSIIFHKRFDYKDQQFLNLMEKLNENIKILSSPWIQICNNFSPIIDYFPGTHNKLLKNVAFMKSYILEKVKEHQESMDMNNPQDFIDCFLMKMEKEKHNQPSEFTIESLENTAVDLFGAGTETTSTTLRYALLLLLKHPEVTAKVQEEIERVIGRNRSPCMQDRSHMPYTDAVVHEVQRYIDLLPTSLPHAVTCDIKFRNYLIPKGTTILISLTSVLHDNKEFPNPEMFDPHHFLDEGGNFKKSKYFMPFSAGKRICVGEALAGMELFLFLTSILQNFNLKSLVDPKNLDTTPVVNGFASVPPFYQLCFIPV

Substance-P receptor, sequence (P25103 whole entry): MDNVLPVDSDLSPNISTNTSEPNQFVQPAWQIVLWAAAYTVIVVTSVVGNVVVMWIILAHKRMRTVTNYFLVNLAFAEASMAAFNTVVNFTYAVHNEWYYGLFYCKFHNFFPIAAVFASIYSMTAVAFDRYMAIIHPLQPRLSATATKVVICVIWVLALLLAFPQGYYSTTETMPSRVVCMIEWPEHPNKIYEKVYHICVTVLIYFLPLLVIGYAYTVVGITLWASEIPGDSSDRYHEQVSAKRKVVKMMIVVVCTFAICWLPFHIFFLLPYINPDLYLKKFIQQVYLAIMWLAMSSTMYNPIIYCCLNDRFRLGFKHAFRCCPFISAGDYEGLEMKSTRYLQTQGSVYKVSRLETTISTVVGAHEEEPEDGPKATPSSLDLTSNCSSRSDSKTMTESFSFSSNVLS
Acetylcholinesterase, sequence (P22303 whole entry): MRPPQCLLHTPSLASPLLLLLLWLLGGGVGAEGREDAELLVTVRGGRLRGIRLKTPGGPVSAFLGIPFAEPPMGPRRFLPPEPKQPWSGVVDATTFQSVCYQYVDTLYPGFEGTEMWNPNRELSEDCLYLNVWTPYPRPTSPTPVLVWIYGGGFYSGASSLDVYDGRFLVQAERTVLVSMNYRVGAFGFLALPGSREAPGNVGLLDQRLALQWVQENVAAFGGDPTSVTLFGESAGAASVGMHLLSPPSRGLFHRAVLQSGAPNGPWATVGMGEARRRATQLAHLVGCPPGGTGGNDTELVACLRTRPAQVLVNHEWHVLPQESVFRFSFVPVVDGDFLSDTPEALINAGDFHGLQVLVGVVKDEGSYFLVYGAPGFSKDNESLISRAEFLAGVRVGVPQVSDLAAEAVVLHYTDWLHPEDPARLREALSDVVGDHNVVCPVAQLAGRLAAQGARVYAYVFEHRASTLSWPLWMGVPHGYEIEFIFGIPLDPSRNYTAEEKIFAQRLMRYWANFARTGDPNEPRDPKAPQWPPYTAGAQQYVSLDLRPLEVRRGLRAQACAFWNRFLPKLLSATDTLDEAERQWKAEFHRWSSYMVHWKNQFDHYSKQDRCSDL
Mitogen-activated protein kinase 14, sequence (Q16539 whole entry): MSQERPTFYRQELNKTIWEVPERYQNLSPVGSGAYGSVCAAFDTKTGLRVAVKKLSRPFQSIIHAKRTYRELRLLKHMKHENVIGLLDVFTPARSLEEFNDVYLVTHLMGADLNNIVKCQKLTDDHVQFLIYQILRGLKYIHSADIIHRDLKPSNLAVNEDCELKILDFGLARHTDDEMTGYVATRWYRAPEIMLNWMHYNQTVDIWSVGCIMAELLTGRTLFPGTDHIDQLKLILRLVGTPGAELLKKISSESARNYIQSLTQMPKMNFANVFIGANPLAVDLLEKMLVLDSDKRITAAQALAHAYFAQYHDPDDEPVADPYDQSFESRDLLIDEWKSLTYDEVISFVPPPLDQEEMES
Vascular endothelial growth factor receptor 1, sequence (P17948 whole entry): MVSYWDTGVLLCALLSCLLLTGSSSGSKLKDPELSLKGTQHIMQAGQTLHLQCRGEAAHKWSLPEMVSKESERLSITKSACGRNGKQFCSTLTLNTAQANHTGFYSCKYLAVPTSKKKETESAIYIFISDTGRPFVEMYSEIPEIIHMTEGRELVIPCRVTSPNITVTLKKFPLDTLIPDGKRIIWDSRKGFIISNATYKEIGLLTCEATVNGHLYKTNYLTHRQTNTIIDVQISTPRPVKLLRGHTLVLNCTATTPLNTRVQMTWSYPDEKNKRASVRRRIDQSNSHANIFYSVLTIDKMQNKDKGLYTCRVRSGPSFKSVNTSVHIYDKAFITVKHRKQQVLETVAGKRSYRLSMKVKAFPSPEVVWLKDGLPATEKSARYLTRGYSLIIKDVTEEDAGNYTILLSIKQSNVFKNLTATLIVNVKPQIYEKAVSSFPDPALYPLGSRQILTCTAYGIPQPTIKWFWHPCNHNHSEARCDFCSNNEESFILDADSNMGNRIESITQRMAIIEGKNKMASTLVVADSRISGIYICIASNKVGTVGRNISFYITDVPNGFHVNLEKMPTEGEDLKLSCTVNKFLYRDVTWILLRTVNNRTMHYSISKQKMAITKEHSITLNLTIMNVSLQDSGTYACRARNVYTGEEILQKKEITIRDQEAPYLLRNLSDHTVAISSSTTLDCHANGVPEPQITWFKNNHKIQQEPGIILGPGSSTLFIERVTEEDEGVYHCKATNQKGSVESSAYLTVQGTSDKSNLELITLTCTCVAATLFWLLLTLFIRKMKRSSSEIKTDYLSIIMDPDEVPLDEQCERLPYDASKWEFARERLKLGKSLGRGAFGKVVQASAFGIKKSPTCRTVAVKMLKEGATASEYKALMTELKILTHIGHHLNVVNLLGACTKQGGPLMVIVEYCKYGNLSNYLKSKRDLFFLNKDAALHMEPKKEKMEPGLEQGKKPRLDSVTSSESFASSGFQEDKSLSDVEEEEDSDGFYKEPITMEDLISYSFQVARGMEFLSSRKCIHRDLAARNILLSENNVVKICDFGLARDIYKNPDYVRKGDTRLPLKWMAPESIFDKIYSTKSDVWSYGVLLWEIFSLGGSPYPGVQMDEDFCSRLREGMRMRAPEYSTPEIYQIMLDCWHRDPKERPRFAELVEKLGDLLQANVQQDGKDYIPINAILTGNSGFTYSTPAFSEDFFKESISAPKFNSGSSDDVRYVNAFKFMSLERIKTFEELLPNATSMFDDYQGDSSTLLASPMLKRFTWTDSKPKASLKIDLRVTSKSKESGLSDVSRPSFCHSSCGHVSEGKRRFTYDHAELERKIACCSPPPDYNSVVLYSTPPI

With `Cc1ccc2cc3c(ccc4ccccc43)c3c2c1CC3` [3-METHYLCHOLANTHRENE], the IC50 result (in series [1]; on Substance-P receptor; in series [2]; at Endothelin-1 receptor; in series [3]; in series [4]) was “Not Active” in each case. Moreover, the IC50 was 22.7 µM at Acetylcholinesterase (read-out: IC50) and “Not Active” on Cytochrome P450 2C9. Besides, the Ki entry (in series [1]; in series [3]; on Cytochrome P450 2C9) was “Not Active” in each case.

As for `CC[C@@]1(O)C[C@H](O[C@H]2C[C@H](N(C)C)[C@H](O[C@H]3C[C@H](O)[C@H](O[C@H]4CCC(=O)[C@H](C)O4)[C@H](C)O3)[C@H](C)O2)c2c(cc3c(c2O)C(=O)c2c(O)cccc2C3=O)[C@H]1C(=O)OC` [ACLARUBICIN], the IC50 result (in series [1]; on Substance-P receptor; in series [2]; on Endothelin-1 receptor; in series [3]; in series [4]) was “Not Active” each time. Besides, the IC50 result on Acetylcholinesterase (hek293) and at Cytochrome P450 2C9 was “Not Active” each time. Besides, the Ki result (in series [1]; in series [3]; at Cytochrome P450 2C9) was “Not Active” in each case.

Turning to `Nc1nc2c(ncn2COCCO)c(=O)[nH]1` [ACYCLOVIR], the IC50 result (in series [1]; on Substance-P receptor; in series [2]; on Endothelin-1 receptor; in series [3]; in series [4]) was “Not Active” in each case. Also, the IC50 entry against Acetylcholinesterase (hek293) and at Cytochrome P450 2C9 was “Not Active” throughout. Also, the Ki entry (in series [1]; in series [3]; at Cytochrome P450 2C9) was “Not Active” each time.

As for `Cc1c(C)c2c(c(C)c1O)CC[C@@](C)(CCC[C@H](C)CCC[C@H](C)CCCC(C)C)O2` [ALPHA-TOCOPHEROL], the IC50 result (in series [1]; against Substance-P receptor; in series [2]; against Endothelin-1 receptor; in series [3]; in series [4]) was “Not Active” throughout. Besides, the IC50 result against Acetylcholinesterase (hek293) and against Cytochrome P450 2C9 was “Not Active” throughout. For the same molecule, the Ki entry (in series [1]; in series [3]; at Cytochrome P450 2C9) was “Not Active” in each case.

On to `NCCCCCC(=O)O` [AMINOCAPROIC ACID], for which the IC50 result (in series [1]; against Substance-P receptor; in series [2]; on Endothelin-1 receptor; in series [3]; in series [4]) was “Not Active” each time. The IC50 result on Acetylcholinesterase (hek293) and on Cytochrome P450 2C9 was “Not Active” throughout. In addition, the inhibition constant (Ki) entry (in series [1]; in series [3]; at Cytochrome P450 2C9) was “Not Active” throughout.

Regarding `CCC1(c2ccc(N)cc2)CCC(=O)NC1=O` (configuration not stated) [AMINOGLUTETHIMIDE], the IC50 result (in series [1]; at Substance-P receptor; in series [2]; against Endothelin-1 receptor; in series [3]; in series [4]) was “Not Active” each time. In addition, the IC50 entry at Acetylcholinesterase (hek293) and on Cytochrome P450 2C9 was “Not Active” each time. The Ki entry (in series [1]; in series [3]; at Cytochrome P450 2C9) was “Not Active” throughout.

`Cc1ccc(/N=C/N(C)/C=N/c2ccc(C)cc2C)c(C)c1` [AMITRAZ]: the IC50 result (in series [1]; against Substance-P receptor; in series [2]; on Endothelin-1 receptor; in series [3]; in series [4]) was “Not Active” each time. For the same molecule, the IC50 entry at Acetylcholinesterase (hek293) and against Cytochrome P450 2C9 was “Not Active” in each case. Further, the Ki result (in series [1]; in series [3]; on Cytochrome P450 2C9) was “Not Active” in each case.

For `CCOC(=O)C1=C(COCCN)NC(C)=C(C(=O)OC)C1c1ccccc1Cl` (configuration not stated) [AMLODIPINE], the IC50 entry (in series [1]; against Substance-P receptor; in series [2]; against Endothelin-1 receptor; in series [3]; in series [4]) was “Not Active” in each case. Further, the IC50 entry against Acetylcholinesterase (hek293) and on Cytochrome P450 2C9 was “Not Active” throughout. Further, the Ki result (in series [1]; in series [3]; at Cytochrome P450 2C9) was “Not Active” throughout.

Regarding `COc1ccc(C[C@H]2NC[C@H](O)[C@H]2OC(C)=O)cc1` [ANISOMYCIN], the IC50 entry (in series [1]; against Substance-P receptor; in series [2]; against Endothelin-1 receptor; in series [3]; in series [4]) was “Not Active” in each case. The IC50 entry on Acetylcholinesterase (hek293) and on Cytochrome P450 2C9 was “Not Active” throughout. The Ki entry (in series [1]; on Substance-P receptor; in series [2]; at Endothelin-1 receptor; in series [3]; in series [4]) was “Not Active” each time. In addition, the Ki entry at Acetylcholinesterase (hek293) and on Cytochrome P450 2C9 was “Not Active” each time.

Turning to `Nc1ncn([C@@H]2O[C@H](CO)[C@@H](O)[C@H]2O)c(=O)n1` [AZACITIDINE], the IC50 result (in series [1]; against Substance-P receptor; in series [2]; on Endothelin-1 receptor; in series [3]; in series [4]) was “Not Active” each time. The IC50 result against Acetylcholinesterase (hek293) and at Cytochrome P450 2C9 was “Not Active” in each case. In addition, the Ki entry (in series [1]; in series [3]; on Cytochrome P450 2C9) was “Not Active” throughout.

As for `CN(C)C(=O)Oc1cc(OC(=O)N(C)C)cc(C(O)CNC(C)(C)C)c1` (configuration not stated) [BAMBUTEROL], the IC50 result (in series [1]; on Substance-P receptor; in series [2]; against Endothelin-1 receptor; in series [3]; in series [4]) was “Not Active” in each case. The IC50 entry at Acetylcholinesterase (hek293) and at Cytochrome P450 2C9 was “Not Active” throughout. For the same molecule, the Ki result (in series [1]; in series [3]; on Cytochrome P450 2C9) was “Not Active” in each case.

Consider `c1ccc2c(c1)c1cccc3ccc4cccc2c4c31` [BENZO[E]PYRENE], for which the IC50 result (in series [1]; at Substance-P receptor; in series [2]; on Endothelin-1 receptor; in series [3]; in series [4]) was “Not Active” each time. Further, the IC50 result against Acetylcholinesterase (hek293) and at Cytochrome P450 2C9 was “Not Active” throughout. In addition, the Ki entry (in series [1]; in series [3]; at Cytochrome P450 2C9) was “Not Active” in each case.

On to `CNCCc1ccccn1` [BETAHISTINE], for which the IC50 entry (in series [1]; against Substance-P receptor; in series [2]; against Endothelin-1 receptor; in series [3]; in series [4]) was “Not Active” each time. For the same molecule, the IC50 result on Acetylcholinesterase (hek293) and on Cytochrome P450 2C9 was “Not Active” throughout. The inhibitory constant (Ki) entry (in series [1]; in series [3]; on Cytochrome P450 2C9) was “Not Active” throughout.

For the molecule `CC(C)C(Br)C(=O)NC(N)=O` (configuration not stated) [BROMISOVALUM], the half-inhibitory concentration (IC50) result (in series [1]; against Substance-P receptor; in series [2]; against Endothelin-1 receptor; in series [3]; in series [4]) was “Not Active” in each case. The IC50 entry at Acetylcholinesterase (hek293) and on Cytochrome P450 2C9 was “Not Active” each time. For the same molecule, the Ki result (in series [1]; in series [3]; on Cytochrome P450 2C9) was “Not Active” throughout.

For `CCCC1O[C@@H]2C[C@H]3[C@@H]4CCC5=CC(=O)C=C[C@]5(C)[C@H]4[C@@H](O)C[C@]3(C)[C@]2(C(=O)CO)O1` (some centres not stated) [BUDESONIDE], the IC50 entry (in series [1]; on Substance-P receptor; in series [2]; on Endothelin-1 receptor; in series [3]; in series [4]) was “Not Active” in each case. Moreover, the IC50 result at Acetylcholinesterase (hek293) and against Cytochrome P450 2C9 was “Not Active” in each case. Also, the Ki result (in series [1]; in series [3]; at Cytochrome P450 2C9) was “Not Active” each time.

In the case of `CC(NC(C)(C)C)C(=O)c1cccc(Cl)c1` (configuration not stated) [BUPROPION], the IC50 in series [1] (read-out: IC50) is 2.32 µM; on Substance-P receptor, “Not Active”; in series [2], “Not Active”; against Endothelin-1 receptor, “Not Active”; in series [3], “Not Active”; in series [4], “Not Active”. Also, the concentration for half-maximal inhibition (IC50) entry on Acetylcholinesterase (hek293) and on Cytochrome P450 2C9 was “Not Active” each time. Also, the Ki is 1.43 µM in series [1] (read-out: Ki), “Not Active” in series [3] and “Not Active” on Cytochrome P450 2C9.

Take `CN(Cc1ccc(C(C)(C)C)cc1)Cc1cccc2ccccc12` [BUTENAFINE]: the IC50 in series [1] (read-out: IC50) is 0.255 µM; at Substance-P receptor it was “Not Active”; in series [2], “Not Active”; against Endothelin-1 receptor, “Not Active”; in series [3], “Not Active”; in series [4], “Not Active”. Further, the IC50 is 6.91 µM on Acetylcholinesterase (read-out: IC50) and “Not Active” on Cytochrome P450 2C9. For the same molecule, the values for the Ki (in series [1] (read-out: Ki); in series [3]; at Cytochrome P450 2C9) were 0.157 µM, “Not Active” and “Not Active”, respectively.

Values taken from ChEMBL document CHEMBL1909046, “DrugMatrix in vitro pharmacology data”.
